Results taken from patent US20160223525A1, “METHOD OF SCREENING FOR COMPOUNDS USEFUL IN THE TREATMENT OF ALZHEIMER DISEASE” (INNOVATIVE CONCEPTS IN DRUG DEVELOPMENT, priority 2013, published 2016).

How the values were obtained:
[1] = test system: Patient-derived fibroblasts (AD patient, affected cells); test: Reversal of the AD-signature (mitochondrial behaviour variables V3, V5, V7, V11, V19) by dynamic imaging of MitoTracker green-labelled live cells; type: cell-based, human; settings: for overall rescue of the diseased (AD) phenotype, weighted by discriminant equation: 30 min incubation, healthy control=100%, AD control=0%; for overall rescue / reversal of the AD-signature, dose-response: across tested doses (0.05/0.1 to 10 μM)
Protocol: Fibroblasts were labelled with MitoTracker green, a cell-permeant mitochondrial dye not sensitive to mitochondrial membrane potential, for 30 minutes. Images were recorded from an epifluorescence microscope continuously for 6 minutes. Cells were kept at 37° C. for the duration of the image capture. For each experimental condition, 3 to 15 cells were recorded per well from three independent plates, i.e. up to 6000 individual mitochondria. The maximum duration for data acquisition was 30 minutes (i.e. five cells observed during 6 min). Images were captured with a Zeiss Axioplan II microscope along three dimensions in space and in time.
Patient-derived fibroblasts were cultured in DMEM containing 15% fetal calf serum and 0.5% DMSO, a concentration known to be inert on the mitochondrial behaviour.
[…] These concentrations are consistent with circulating levels of most drugable small molecules. They are within the range of doses centered on cMax when PK/PD (Pharmacokinetic/Pharmacodynamic) studies are available.
The negative control consists in affected cells treated with the vehicle only (DMSO), the positive control consists in healthy cells treated with the vehicle only (DMSO).
Reference compounds were tested on affected cells and compared to the 2 controls.
All raw data were expressed as a percent of control values (Healthy control=100%, AD control=0%).
Data analysis of the signature variables was particularly tuned to identify bifurcation in the logic of the descriptor measured. These bifurcations and the type of adaptation put in place by the mitochondrial reticular network give us significant insights on how the cell adapts to the test element. Impact of the disease on each individual variable was analyzed through a classical linear analysis with an analysis of variance (ANOVAs). Significant differences between groups are sought through a Bonferroni post-hoc analysis.

[2] = cited from earlier work
[3] = across tested doses (0.1, 1, 10 μM; imatinib also 0.05 μM)
[4] = across tested doses (0.1, 1, 10 μM)

SMILES	V3 (dispersion descriptor of the moving speeds of mitochondria), % of phenotypic rescue ([1]; 0.05 μM)	V5 (average cell area or dispersion descriptor of the areas of cells), % of phenotypic rescue ([1]; 0.05 μM)	V7 (total area of regions containing entwined mitochondria to the total cell area), % of phenotypic rescue ([1]; 0.05 μM)	V11 (cell area covered with mitochondria), % of phenotypic rescue ([1]; 0.05 μM)	V19 (frequency of mitochondria displaying an area between 2.6 and 3.1 μm^2), % of phenotypic rescue ([1]; 0.05 μM)	overall rescue of the diseased (AD) phenotype, weighted by discriminant equation ([1]; 0.05 μM) [%]	V3 (dispersion descriptor of the moving speeds of mitochondria), % of phenotypic rescue [1, 3]	V11 (cell area covered with mitochondria), % of phenotypic rescue [1, 3]	overall rescue of the diseased (AD) phenotype ([1]; doses lower than 0.05 μM (not shown))	bioavailability [2]	overall rescue of the diseased (AD) phenotype, weighted by discriminant equation ([1]; 0.1 μM)	overall rescue of the diseased (AD) phenotype, weighted by discriminant equation ([1]; 1 μM)	overall rescue of the diseased (AD) phenotype, weighted by discriminant equation ([1]; 10 μM)	overall rescue / reversal of the AD-signature, dose-response [1]	V5 (average cell area or dispersion descriptor of the areas of cells), % of phenotypic rescue [1, 4]	V7 (total area of regions containing entwined mitochondria to the total cell area), % of phenotypic rescue [1, 4]	V19 (frequency of mitochondria displaying an area between 2.6 and 3.1 μm^2), % of phenotypic rescue [1, 4]	V5 (average cell area or dispersion descriptor of the areas of cells), % of phenotypic rescue ([1]; 1 and 10 μM)
Cc1ccc(NC(=O)c2ccc(CN3CCN(C)CC3)cc2)cc1Nc1nccc(-c2cccnc2)n1 [Imatinib]	not affected	level comparable to that of healthy subject-derived cells	level comparable to that of healthy subject-derived cells	not affected	level comparable to that of healthy subject-derived cells	54	tended to improve with increasing doses	worsened	no effect	–	–	–	–	–	–	–	–	–
Oc1ccc(C=Cc2cc(O)cc(O)c2)cc1 [Resveratrol]	–	–	–	–	–	–	efficient in reversing the disease phenotype	greatly worsened the disease-phenotype	–	poor bioavailability	did not provide rescue to the AD phenotype but a detrimental effect with worsening of the diseased status	did not provide rescue to the AD phenotype but a detrimental effect with worsening of the diseased status	63%	ability to reverse the AD-signature in a dose-dependent manner	seesaw effects	seesaw effects	greatly worsened the disease-phenotype	–
CC(=O)[C@H]1CC[C@H]2[C@@H]3CC[C@H]4C[C@H](O)CC[C@]4(C)[C@H]3CC[C@]12C [Allopregnanolone]	–	–	–	–	–	–	rescue was obtained at all tested doses	detrimental at the lowest tested dose and tended to improve with increasing concentration of the drug but not to a level where the disease phenotype was reversed	–	–	–	36%	provided a dose-dependent rescue	ability to reverse the AD-signature in a dose-dependent manner	–	detrimental at the lowest tested dose and tended to improve with increasing concentration of the drug but not to a level where the disease phenotype was reversed	no effect	rescue was obtained
